Reference: US5411707A, “Vacuum extractor incorporating a condenser column” (priority 1994, dated 1995)
Values joined by “and” are separate entries in the source; they are usually repeats but may differ in a detail not shown here. Identical values can stand only once.

Conditions: in H2O; cited from earlier work

Which “SOLUBIL. IN H2O” value does the source give for `Clc1cccc(Cl)c1Cl` [1,2,3-Trichloro benzene] here?
The value was 1 PPM.

Which “SOLUBIL. IN H2O” value does the source give for `Clc1ccccc1Cl` [1,2-Dichlorobenzene] here?
Its value is 10000 PPM.

Which “SOLUBIL. IN H2O” value does the source give for `Cc1cc(C)cc(C)c1` [1,3,5-Trimethyl benzene] here?
Its value is 2000 PPM.

Which “SOLUBIL. IN H2O” value does the source give for `Clc1cccc(Cl)c1` [1,3-Dichlorobenzene] here?
The value was 11000 PPM and 10000 PPM.

Which “SOLUBIL. IN H2O” value does the source give for `Cc1ccc(O)c(C)c1` [2,4-Dimethylphenol] here?
The value was 5 PPM.

Which “SOLUBIL. IN H2O” value does the source give for `Oc1ccccc1Cl` [2-Chlorophenol] here?
The value was 5 PPM.

For `Cc1ccccc1O` [2-Methylphenol], which “SOLUBIL. IN H2O” value is on record?
The value was 775000 PPM.

Which “SOLUBIL. IN H2O” value does the source give for `Nc1ccccc1[N+](=O)[O-]` [2-Nitroaniline] here?
Its value is 5 PPM.

For `Cc1cc(O)ccc1Cl` [4-Chloro-3-methyl phenol], which “SOLUBIL. IN H2O” value is on record?
The value was 1 PPM.

For `Nc1ccc(Cl)cc1` [4-Chloroaniline], which “SOLUBIL. IN H2O” value is on record?
The value was 5 PPM.

Which “SOLUBIL. IN H2O” value does the source give for `Cc1ccc(Cl)cc1` [4-Chlorotoluene] here?
The value was 5 PPM.

Which “SOLUBIL. IN H2O” value does the source give for `CC(=O)c1ccccc1` [Acetophenone] here?
The value was 5500 PPM.

With `C=CC#N` [Acrylonitrile] as the compound, how does the “SOLUBIL. IN H2O” value read?
Its value is 73000 PPM.

For `C=CCCl` [Allyl chloride], which “SOLUBIL. IN H2O” value is on record?
Its value is 3600 PPM.

With `Nc1ccccc1` [Aniline] as the compound, how does the “SOLUBIL. IN H2O” value read?
The value was 32500 PPM.

With `OCc1ccccc1` [Benzyl alcohol] as the compound, how does the “SOLUBIL. IN H2O” value read?
Its value is 80000 PPM.

For `Brc1ccccc1` [Bromobenzene], which “SOLUBIL. IN H2O” value is on record?
Its value is 400 PPM.

With `c1ccc2c(c1)oc1ccccc12` [Dibenzofuran] as the compound, how does the “SOLUBIL. IN H2O” value read?
Its value is 1 PPM.

Which “SOLUBIL. IN H2O” value does the source give for `BrCBr` [Dibromomethane] here?
The value was 11500 PPM.

With `CCOCC` [Diethyl ether] as the compound, how does the “SOLUBIL. IN H2O” value read?
The value was 60400 PPM.

With `C=C(C)C(=O)OC` [Methyl methacrylate] as the compound, how does the “SOLUBIL. IN H2O” value read?
The value was 16000 PPM.

With `c1ccc2ccccc2c1` [Naphthalene] as the compound, how does the “SOLUBIL. IN H2O” value read?
The value was 3400 PPM.

For `Clc1cc(Cl)c(Cl)c(Cl)c1Cl` [Pentachlorobenzene], which “SOLUBIL. IN H2O” value is on record?
The value was 1 PPM.

With `ClCCOCCCl` [bis(2-Chloroethyl) ether] as the compound, how does the “SOLUBIL. IN H2O” value read?
Its value is 1 PPM.

With `CC(C)c1ccccc1` [iso-Propylbenzene] as the compound, how does the “SOLUBIL. IN H2O” value read?
Its value is 5000 PPM.

Which “SOLUBIL. IN H2O” value does the source give for `CCCCc1ccccc1` [n-Butylbenzene] here?
The value was 5000 PPM.

With `CCCN(CCC)N=O` [n-Nitroso-di-n-propylamine] as the compound, how does the “SOLUBIL. IN H2O” value read?
Its value is 5 PPM.

With `O=NN1CCCCC1` [n-Nitroso-piperidine] as the compound, how does the “SOLUBIL. IN H2O” value read?
Its value is 1000000 PPM.

For `O=NN1CCOCC1` [n-Nitrosomorpholine], which “SOLUBIL. IN H2O” value is on record?
Its value is 1000000 PPM.

With `CCCc1ccccc1` [n-Propylbenzene] as the compound, how does the “SOLUBIL. IN H2O” value read?
The value was 60 PPM.

With `Cc1ccccc1N` [o-Toluidine] as the compound, how does the “SOLUBIL. IN H2O” value read?
Its value is 17000 PPM.

With `Cc1ccc(C(C)C)cc1` [para-iso-Propyl toluene] as the compound, how does the “SOLUBIL. IN H2O” value read?
Its value is 1 PPM.

For `CCC(C)c1ccccc1` (stereo not shown) [sec-butylbenzene], which “SOLUBIL. IN H2O” value is on record?
The value was 320 PPM.

Which “SOLUBIL. IN H2O” value does the source give for `CC(C)(C)c1ccccc1` [tert-Butlybenzene] here?
Its value is 290 PPM.

Same assay, conditions: water; cited from earlier work

For `Cc1ccc(C)c(C)c1` [1,2,4-Trimethyl benzene], which “SOLUBIL. IN H2O” value is on record?
The value was 1 PPM.

Which “SOLUBIL. IN H2O” value does the source give for `Cc1ccccn1` [2-Picoline] here?
The value was 1000000 PPM.

Conditions: 1 gram cod liver oil, 200 ppb spike recovery only
Description: The cryotrap is placed in liquid nitrogen which is replaced as needed throughout the operation. The sample valve is placed in the load position. Samples are placed in the sample chamber and the chamber attached to the apparatus. The coolant/heat valve is adjusted so that the condenser fluid is circulating and at the desired temperature. The vacuum pump is turned on and the vacuum pump valve and sample chamber valve are opened to begin distillation/purging. After five minutes the pressure at the vacuum pump, as measured by a Pirani gauge reads about 0.1 Torr and a Pirani gauge reads less than about 250 Torr at the sample chamber. Distillation continues for another five minutes to complete distillation at which time the sample chamber pressure should be approximately 10 Torr.
Once distillation is complete, the sampling valve is adjusted to the injection position. The liquid nitrogen is removed from the cryotrap and replaced with a beaker of hot (about 90° C.) tap water. The GC/MS then begins to collect data. At this stage, the sample chamber may be removed and the apparatus prepared for another sample. If multiple samples are connected, a new sample chamber may be connected in sequence.

Which “Oil Recovery (200 ppb spike only)” value does the source give for `CCC(C)=O` [2-Butanone] here?
The value was 128 ± 21.5%.
